Measured values reported in ChEMBL document CHEMBL1275577, “Study of the in vitro activities of rifaximin and comparator agents against 536 anaerobic intestinal bacteria from the perspective of potential utility in pathology involving bowel flora” (Antimicrob Agents Chemother, 2009).
Values after ≈ are worked out from the molar mass of the structure shown.

How the values were obtained:
Assay type in all cases: functional
Desulfovibrio piger = assay: Antimicrobial activity against Desulfovibrio piger by Wadsworth agar dilution method
Fusobacterium sp. = assay: Antimicrobial activity against Fusobacterium sp. by Wadsworth agar dilution method
Porphyromonas uenonis = assay: Antimicrobial activity against Porphyromonas uenonis by Wadsworth agar dilution method
[1] = test system: Enterocloster clostridioformis; assay: Antimicrobial activity against Clostridium clostridioforme by Wadsworth agar dilution method
Clostridium hathewayi = assay: Antimicrobial activity against Clostridium hathewayi by Wadsworth agar dilution method; details: Hungatella hathewayi
Clostridium perfringens = assay: Antimicrobial activity against Clostridium perfringens by Wadsworth agar dilution method
Clostridium bolteae = assay: Antimicrobial activity against Clostridium bolteae by Wadsworth agar dilution method; details: Enterocloster bolteae
Clostridium cadaveris = assay: Antimicrobial activity against Clostridium cadaveris by Wadsworth agar dilution method
Clostridium cocleatum = assay: Antimicrobial activity against Clostridium cocleatum by Wadsworth agar dilution method; details: Thomasclavelia cocleata
Clostridium disporicum = assay: Antimicrobial activity against Clostridium disporicum by Wadsworth agar dilution method
Clostridium nexile = assay: Antimicrobial activity against Clostridium nexile by Wadsworth agar dilution method; details: Faecalimonas nexilis
[2] = test system: Paeniclostridium sordellii; assay: Antimicrobial activity against Clostridium sordellii by Wadsworth agar dilution method; details: Paraclostridium sordellii
[3] = test system: Bifidobacterium adolescentis; assay: Antimicrobial activity against Bifidobacterium adolescentis by Wadsworth agar dilution method
Bifidobacterium bifidum = assay: Antimicrobial activity against Bifidobacterium bifidum by Wadsworth agar dilution method
Eubacterium biforme = assay: Antimicrobial activity against Eubacterium biforme by Wadsworth agar dilution method; details: Holdemanella biformis
Eubacterium callanderi = assay: Antimicrobial activity against Eubacterium callanderi by Wadsworth agar dilution method
[4] = test system: Limosilactobacillus fermentum; assay: Antimicrobial activity against Lactobacillus fermentum by Wadsworth agar dilution method
[5] = test system: Lacticaseibacillus rhamnosus; assay: Antimicrobial activity against Lactobacillus rhamnosus by Wadsworth agar dilution method
Finegoldia magna = assay: Antimicrobial activity against Finegoldia magna by Wadsworth agar dilution method
Parvimonas micra = assay: Antimicrobial activity against Peptostreptococcus micros by Wadsworth agar dilution method

`CO[C@H]1/C=C/O[C@@]2(C)Oc3c(C)c(O)c4c(O)c(c5c(nc6cc(C)ccn65)c4c3C2=O)NC(=O)/C(C)=C\C=C\[C@H](C)[C@H](O)[C@@H](C)[C@@H](O)[C@@H](C)[C@H](OC(C)=O)[C@@H]1C` [RIFAXIMIN] gave an MIC50 (Desulfovibrio piger) of 16 µg/mL (≈ 20.4 µM), an MIC90 (Desulfovibrio piger) of 332 µg/mL (≈ 422 µM) and an MIC50 (Fusobacterium sp.) of 16 µg/mL (≈ 20.4 µM). The MIC90 (Fusobacterium sp.) was over 1020 µg/mL, the MIC (Porphyromonas uenonis) was 0.25 µg/mL (≈ 0.318 µM) and the MIC50 (Porphyromonas uenonis) was 0.25 µg/mL (≈ 0.318 µM). The MIC90 (Porphyromonas uenonis) was 0.5 µg/mL (≈ 0.636 µM), the MIC50 [1] was 0.25 µg/mL (≈ 0.318 µM) and the MIC90 [1] was 0.25 µg/mL (≈ 0.318 µM). The MIC50 (Clostridium hathewayi) was 0.25 µg/mL (≈ 0.318 µM), the MIC90 (Clostridium hathewayi) was 0.25 µg/mL (≈ 0.318 µM) and the MIC50 (Clostridium perfringens) was 0.25 µg/mL (≈ 0.318 µM). The MIC90 (Clostridium perfringens) was 0.25 µg/mL (≈ 0.318 µM), the MIC (Clostridium bolteae) was 0.25 µg/mL (≈ 0.318 µM) and the MIC50 (Clostridium bolteae) was 0.25 µg/mL (≈ 0.318 µM). It also gave an MIC90 (Clostridium bolteae) of over 1020 µg/mL, an MIC (Clostridium cadaveris) of 0.25 µg/mL (≈ 0.318 µM) and an MIC50 (Clostridium cadaveris) of 0.25 µg/mL (≈ 0.318 µM). For the same molecule, the MIC90 (Clostridium cadaveris) was over 1020 µg/mL, the MIC (Clostridium cocleatum) was 0.25 µg/mL (≈ 0.318 µM) and the MIC50 (Clostridium cocleatum) was 0.25 µg/mL (≈ 0.318 µM). For the same molecule, the MIC90 (Clostridium cocleatum) was over 1020 µg/mL, the MIC (Clostridium disporicum) was 0.25 µg/mL (≈ 0.318 µM) and the MIC50 (Clostridium disporicum) was 0.25 µg/mL (≈ 0.318 µM). It also gave an MIC90 (Clostridium disporicum) of over 1020 µg/mL, an MIC (Clostridium nexile) of 0.25 µg/mL (≈ 0.318 µM) and an MIC50 (Clostridium nexile) of 0.25 µg/mL (≈ 0.318 µM). It also gave an MIC90 (Clostridium nexile) of over 1020 µg/mL, an MIC [2] of 0.25 µg/mL (≈ 0.318 µM) and an MIC50 [2] of 0.25 µg/mL (≈ 0.318 µM). The MIC90 [2] was over 1020 µg/mL, the MIC50 [3] was 0.5 µg/mL (≈ 0.636 µM) and the MIC90 [3] was over 1020 µg/mL. For the same molecule, the MIC50 (Bifidobacterium bifidum) was 0.5 µg/mL (≈ 0.636 µM), the MIC90 (Bifidobacterium bifidum) was over 1020 µg/mL and the MIC50 (Eubacterium biforme) was 0.5 µg/mL (≈ 0.636 µM). It also gave an MIC90 (Eubacterium biforme) of over 1020 µg/mL, an MIC50 (Eubacterium callanderi) of 0.5 µg/mL (≈ 0.636 µM) and an MIC90 (Eubacterium callanderi) of over 1020 µg/mL. For the same molecule, the MIC50 [4] was 0.5 µg/mL (≈ 0.636 µM), the MIC90 [4] was over 1020 µg/mL and the MIC50 [5] was 0.5 µg/mL (≈ 0.636 µM). It also gave an MIC90 [5] of over 1020 µg/mL, an MIC (Finegoldia magna) of 0.25 µg/mL (≈ 0.318 µM) and an MIC50 (Finegoldia magna) of 0.25 µg/mL (≈ 0.318 µM). It also gave an MIC90 (Finegoldia magna) of 4 µg/mL (≈ 5.09 µM), an MIC (Parvimonas micra) of 0.25 µg/mL (≈ 0.318 µM) and an MIC50 (Parvimonas micra) of 0.25 µg/mL (≈ 0.318 µM). For the same molecule, the MIC90 (Parvimonas micra) was 4 µg/mL (≈ 5.09 µM).
Work on `CC(=O)Oc1ccccc1C(=O)Nc1ncc([N+](=O)[O-])s1` [NITAZOXANIDE] yielded an MIC50 (Desulfovibrio piger) of 1 µg/mL (≈ 3.25 µM), an MIC90 (Desulfovibrio piger) of 4 µg/mL (≈ 13 µM) and an MIC50 (Fusobacterium sp.) of 1 µg/mL (≈ 3.25 µM). For the same molecule, the MIC90 (Fusobacterium sp.) was 8 µg/mL (≈ 26 µM), the MIC50 (Porphyromonas uenonis) was 0.5 µg/mL (≈ 1.63 µM) and the MIC90 (Porphyromonas uenonis) was 1 µg/mL (≈ 3.25 µM). It also gave an MIC50 [1] of 0.25 µg/mL (≈ 0.814 µM), an MIC90 [1] of 0.25 µg/mL (≈ 0.814 µM) and an MIC50 (Clostridium hathewayi) of 0.5 µg/mL (≈ 1.63 µM). It also gave an MIC90 (Clostridium hathewayi) of 0.5 µg/mL (≈ 1.63 µM), an MIC50 (Clostridium perfringens) of 2 µg/mL (≈ 6.51 µM) and an MIC90 (Clostridium perfringens) of 4 µg/mL (≈ 13 µM). It also gave an MIC50 (Clostridium bolteae) of 0.5 µg/mL (≈ 1.63 µM), an MIC90 (Clostridium bolteae) of 4 µg/mL (≈ 13 µM) and an MIC50 (Clostridium cadaveris) of 0.5 µg/mL (≈ 1.63 µM). For the same molecule, the MIC90 (Clostridium cadaveris) was 4 µg/mL (≈ 13 µM), the MIC50 (Clostridium cocleatum) was 0.5 µg/mL (≈ 1.63 µM) and the MIC90 (Clostridium cocleatum) was 4 µg/mL (≈ 13 µM). It also gave an MIC50 (Clostridium disporicum) of 0.5 µg/mL (≈ 1.63 µM), an MIC90 (Clostridium disporicum) of 4 µg/mL (≈ 13 µM) and an MIC50 (Clostridium nexile) of 0.5 µg/mL (≈ 1.63 µM). For the same molecule, the MIC90 (Clostridium nexile) was 4 µg/mL (≈ 13 µM), the MIC50 [2] was 0.5 µg/mL (≈ 1.63 µM) and the MIC90 [2] was 4 µg/mL (≈ 13 µM). It also gave an MIC50 [3] of 2 µg/mL (≈ 6.51 µM), an MIC90 [3] of 32 µg/mL (≈ 104 µM) and an MIC50 (Bifidobacterium bifidum) of 2 µg/mL (≈ 6.51 µM). The MIC90 (Bifidobacterium bifidum) was 32 µg/mL (≈ 104 µM), the MIC50 (Eubacterium biforme) was 2 µg/mL (≈ 6.51 µM) and the MIC90 (Eubacterium biforme) was 32 µg/mL (≈ 104 µM). The MIC50 (Eubacterium callanderi) was 2 µg/mL (≈ 6.51 µM), the MIC90 (Eubacterium callanderi) was 32 µg/mL (≈ 104 µM) and the MIC50 [4] was 2 µg/mL (≈ 6.51 µM). It also gave an MIC90 [4] of 32 µg/mL (≈ 104 µM), an MIC50 [5] of 2 µg/mL (≈ 6.51 µM) and an MIC90 [5] of 32 µg/mL (≈ 104 µM). It also gave an MIC50 (Finegoldia magna) of 0.5 µg/mL (≈ 1.63 µM), an MIC90 (Finegoldia magna) of 1 µg/mL (≈ 3.25 µM) and an MIC50 (Parvimonas micra) of 0.5 µg/mL (≈ 1.63 µM). It also gave an MIC90 (Parvimonas micra) of 1 µg/mL (≈ 3.25 µM).
In the case of `NC[C@@H]1O[C@H](O[C@H]2[C@@H](O)[C@H](O[C@@H]3[C@@H](O)[C@H](N)C[C@H](N)[C@H]3O[C@H]3O[C@H](CN)[C@@H](O)[C@H](O)[C@H]3N)O[C@@H]2CO)[C@H](N)[C@@H](O)[C@@H]1O` [FRAMYCETIN], the MIC50 (Desulfovibrio piger) is reported as 256 µg/mL (≈ 416 µM), the MIC90 (Desulfovibrio piger) is reported as 1020 µg/mL (≈ 1670 µM) and the MIC50 (Fusobacterium sp.) is reported as 512 µg/mL (≈ 833 µM). For the same molecule, the MIC90 (Fusobacterium sp.) was over 1020 µg/mL, the MIC50 (Porphyromonas uenonis) was 512 µg/mL (≈ 833 µM) and the MIC90 (Porphyromonas uenonis) was over 1020 µg/mL. For the same molecule, the MIC50 [1] was 128 µg/mL (≈ 208 µM), the MIC90 [1] was 128 µg/mL (≈ 208 µM) and the MIC50 (Clostridium hathewayi) was 64 µg/mL (≈ 104 µM). For the same molecule, the MIC90 (Clostridium hathewayi) was 512 µg/mL (≈ 833 µM), the MIC50 (Clostridium perfringens) was 1020 µg/mL (≈ 1670 µM) and the MIC90 (Clostridium perfringens) was over 1020 µg/mL. It also gave an MIC50 (Clostridium bolteae) of 256 µg/mL (≈ 416 µM), an MIC90 (Clostridium bolteae) of 1020 µg/mL (≈ 1670 µM) and an MIC50 (Clostridium cadaveris) of 256 µg/mL (≈ 416 µM). For the same molecule, the MIC90 (Clostridium cadaveris) was 1020 µg/mL (≈ 1670 µM), the MIC50 (Clostridium cocleatum) was 256 µg/mL (≈ 416 µM) and the MIC90 (Clostridium cocleatum) was 1020 µg/mL (≈ 1670 µM). The MIC50 (Clostridium disporicum) was 256 µg/mL (≈ 416 µM), the MIC90 (Clostridium disporicum) was 1020 µg/mL (≈ 1670 µM) and the MIC50 (Clostridium nexile) was 256 µg/mL (≈ 416 µM). For the same molecule, the MIC90 (Clostridium nexile) was 1020 µg/mL (≈ 1670 µM), the MIC50 [2] was 256 µg/mL (≈ 416 µM) and the MIC90 [2] was 1020 µg/mL (≈ 1670 µM). It also gave an MIC50 [3] of 128 µg/mL (≈ 208 µM), an MIC90 [3] of 1020 µg/mL (≈ 1670 µM) and an MIC50 (Bifidobacterium bifidum) of 128 µg/mL (≈ 208 µM). The MIC90 (Bifidobacterium bifidum) was 1020 µg/mL (≈ 1670 µM), the MIC50 (Eubacterium biforme) was 128 µg/mL (≈ 208 µM) and the MIC90 (Eubacterium biforme) was 1020 µg/mL (≈ 1670 µM). For the same molecule, the MIC50 (Eubacterium callanderi) was 128 µg/mL (≈ 208 µM), the MIC90 (Eubacterium callanderi) was 1020 µg/mL (≈ 1670 µM) and the MIC50 [4] was 128 µg/mL (≈ 208 µM). It also gave an MIC90 [4] of 1020 µg/mL (≈ 1670 µM), an MIC50 [5] of 128 µg/mL (≈ 208 µM) and an MIC90 [5] of 1020 µg/mL (≈ 1670 µM). It also gave an MIC50 (Finegoldia magna) of 128 µg/mL (≈ 208 µM), an MIC90 (Finegoldia magna) of 512 µg/mL (≈ 833 µM) and an MIC50 (Parvimonas micra) of 128 µg/mL (≈ 208 µM). It also gave an MIC90 (Parvimonas micra) of 512 µg/mL (≈ 833 µM).
